Assay results taken from ChEMBL document CHEMBL1157446, “Cubyl amides: novel P2X7 receptor antagonists” (Bioorg Med Chem Lett, 2008).
Active and inactive are the calls of the source. The rule behind the calls is not given here.

Legend:
[1] = target: P2Y purinoceptor 2 (Homo sapiens) (UniProt P41231); assay: Activity at P2Y2 receptor expressed in HEK293 cells at 10 uM to 1 nM; assay type: cell-based
[2] = target: P2Y purinoceptor 1 (Homo sapiens) (UniProt P47900); assay: Activity at P2Y1 expressed in HEK293 cells at 10 uM to 1 nM; assay type: cell-based
[3] = target: T1, P2X purinoceptor 7 (Rattus norvegicus) (UniProt Q64663); assay: Antagonist activity at P2X7R in BzATP-stimulated rat spinal cord assessed as decrease in fluorescent propidium iodide dye uptake at 1 uM; assay type: functional
T1 sequence (whole entry): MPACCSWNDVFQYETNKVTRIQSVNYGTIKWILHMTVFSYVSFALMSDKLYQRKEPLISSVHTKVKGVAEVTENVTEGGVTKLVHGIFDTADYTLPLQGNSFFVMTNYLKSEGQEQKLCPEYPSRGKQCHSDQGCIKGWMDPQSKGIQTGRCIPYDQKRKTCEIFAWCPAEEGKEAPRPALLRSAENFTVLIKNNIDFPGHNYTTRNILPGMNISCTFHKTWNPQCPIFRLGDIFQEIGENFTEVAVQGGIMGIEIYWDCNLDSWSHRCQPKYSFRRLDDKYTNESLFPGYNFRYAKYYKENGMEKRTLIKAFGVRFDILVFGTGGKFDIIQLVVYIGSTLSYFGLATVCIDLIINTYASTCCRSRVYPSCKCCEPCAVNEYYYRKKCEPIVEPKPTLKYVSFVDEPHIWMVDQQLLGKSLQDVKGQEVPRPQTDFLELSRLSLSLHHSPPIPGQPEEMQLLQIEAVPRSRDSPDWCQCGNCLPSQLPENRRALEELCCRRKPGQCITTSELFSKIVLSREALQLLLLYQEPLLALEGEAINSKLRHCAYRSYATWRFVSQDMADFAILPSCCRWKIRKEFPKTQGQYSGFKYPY

[4] = target: P2Y purinoceptor 4 (Homo sapiens) (UniProt P51582); assay: Agonist activity at P2Y4 receptor expressed in HEK293 cells at 10 uM to 1 nM; assay type: functional, cell-based
P2Y purinoceptor 4 (Homo sapiens), sequence (P51582 whole entry): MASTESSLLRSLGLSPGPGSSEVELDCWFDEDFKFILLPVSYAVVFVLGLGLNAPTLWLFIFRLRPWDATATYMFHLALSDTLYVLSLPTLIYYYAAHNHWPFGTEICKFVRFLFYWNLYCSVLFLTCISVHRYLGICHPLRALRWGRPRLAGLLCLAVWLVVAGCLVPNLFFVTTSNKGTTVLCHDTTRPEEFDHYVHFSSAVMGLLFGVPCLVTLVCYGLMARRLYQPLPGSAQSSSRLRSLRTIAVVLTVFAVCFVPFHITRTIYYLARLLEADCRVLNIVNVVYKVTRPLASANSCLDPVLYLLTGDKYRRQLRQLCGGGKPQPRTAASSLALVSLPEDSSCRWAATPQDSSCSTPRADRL

P2Y purinoceptor 2 (Homo sapiens), sequence (P41231 whole entry): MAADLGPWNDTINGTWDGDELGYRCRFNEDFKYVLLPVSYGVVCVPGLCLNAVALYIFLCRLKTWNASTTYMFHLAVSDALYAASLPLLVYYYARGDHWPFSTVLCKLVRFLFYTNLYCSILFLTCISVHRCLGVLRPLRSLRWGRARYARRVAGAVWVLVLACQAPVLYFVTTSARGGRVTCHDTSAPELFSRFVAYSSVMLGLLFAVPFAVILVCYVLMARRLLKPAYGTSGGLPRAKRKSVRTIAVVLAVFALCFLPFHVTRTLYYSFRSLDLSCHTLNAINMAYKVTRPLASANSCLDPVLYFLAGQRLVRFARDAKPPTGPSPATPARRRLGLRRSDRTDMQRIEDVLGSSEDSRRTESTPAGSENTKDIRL
P2Y purinoceptor 1 (Homo sapiens), sequence (P47900 whole entry): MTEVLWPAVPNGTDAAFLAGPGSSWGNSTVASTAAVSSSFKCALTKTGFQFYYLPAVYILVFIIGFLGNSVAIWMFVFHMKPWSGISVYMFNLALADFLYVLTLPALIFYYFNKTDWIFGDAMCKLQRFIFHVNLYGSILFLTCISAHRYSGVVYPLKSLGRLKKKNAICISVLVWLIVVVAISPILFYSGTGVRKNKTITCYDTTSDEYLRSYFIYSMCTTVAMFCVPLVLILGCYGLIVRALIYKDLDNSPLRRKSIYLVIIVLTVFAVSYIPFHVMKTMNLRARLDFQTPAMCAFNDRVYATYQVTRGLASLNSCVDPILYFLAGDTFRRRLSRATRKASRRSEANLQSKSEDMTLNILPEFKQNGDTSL

Row | SMILES | Activity [1] | Activity [2] | Activity [3] | Activity [4]
1 | O=C(NCC12C3C4C5C3C1C5C42)c1ccc(F)cc1 (centres undefined) | inactive | inactive | Active | inactive
2 | O=C(NCC12CC3CC(CC(C3)C1)C2)c1ccccc1F | inactive | inactive | Active | inactive

Further lines, results first:

Row | Activity [1] | Activity [2] | Activity [3] | Activity [4] | SMILES
3 | inactive | inactive | Active | inactive | COc1ccc(Cl)c(C(=O)NCC23C4C5C6C4C2C6C53)c1 (centres undefined)
4 | inactive | inactive | Active | inactive | O=C(NCC12C3C4C5C3C1C5C42)c1ccccc1F (centres undefined)
5 | inactive | inactive | Active | inactive | O=C(NCC12CC3CC(CC(C3)C1)C2)c1ccc(F)cc1
6 | inactive | inactive | Active | inactive | COc1ccc(Cl)c(C(=O)NCC23CC4CC(CC(C4)C2)C3)c1
